Laboratory results: patent publication US5157052A, “Method for inhibiting IgE production” (priority 1990, dated 1992)

Tests used:
Type in all cases: in vivo, mouse (Balb/c female)
[1] = test system: κ Light Chain; assay: Splenocyte cell surface density/distribution (FACS): κ Light Chain
Protocol: (§1) One group of 4 unstimulated Balb/c female mice is injected with PBS (Group A). Another (Group B) is injected with 20 μg (±) methyl 11α,16-dihydroxy-16-methyl-9-oxoprosta-5Z,13E-dien-1-oate as in Example 13. […] A 3 cm incision is made with a scalpel above the left hip, and the spleen is cut free from adjoining tissue and placed in a 100 mn plastic culture dish containing 10 ml PBS. The splenic cells are then made into a suspension, by rubbing the spleens between the rough, frosted ends of microscope slides repeatedly until the only remaining particulate matter is connective tissue. Cells are transferred to a 15 ml conical polystyrene tube and centrifuged in a centrifuge at 1200 rpm for 5 minutes. The supernatant is discarded by aspiration and the cell pellet is resuspended in 10 ml PBS, then centrifuged at 1200 rpm for 5 minutes. The supernatant is aspirated and the cell pellet is resuspended in 15 mM Tris, 140 mM Ammonium Chloride, to lyse red blood cells. After incubating at room temperature for 10 minutes the cell suspension is centrifuged at 1200 rpm for 10 minutes. The supernatant is discarded and the cell pellet is resuspended in 10 ml FACS Buffer (PBS containing 0.1% BSA and 0.1% Sodium Azide). The cell suspension is filtered through sterile glass wool plugged in the top of a pasteur pipet. Cells in the flow through are counted using a hemacytometer, then the cell suspension is centrifuged at 1200 rpm for 5 minutes. The supernatant is discarded and the cell pellet is resuspended in a volume of FACS Buffer that will yield 4×10^7 cells/ml. 10 μl (4×10^5 cells) is added to each well of a 96-well V-bottom plate. 25 μl of diluted monoclonal antibody directed against splenocyte cell surface proteins is added to each well: Major Histocompatability Complex (MHC) Class II (M5114, ATCC, Rockville Md.), MHC Class I (M1/42, ATCC), Anti-IgD (JA12.5, ATCC, Rockville, Md.), Thymocyte (Thy)-1 (JIJ, ATCC), B220 (14.8, ATCC), Kappa light chain (187, ATCC), IL-2 Receptor (7D4, ATCC), Lyt-1 (7.313, ATCC) and CD23 (biotinylated B3B4) and incubated on ice for 30 minutes. 100 μl 10% BSA 0.1% sodium azide is added to each well, then the plates are centrifuged at 1200 rpm for 10 minutes. The liquid is removed by aspiration and the cell pellets are resuspended in 100 μl FACS Buffer, and centrifuged at 1200 rpm for 5 minutes. […] Samples are transferred to individual tubes and 10,000 cells are analyzed. Using the Lysis software (Becton Dickinson, Mountain View, Calif.) the mean channel log fluorescence and percent positive cells are determined for the entire cell population. […]

[2] = test system: IgG1; assay: Serum IgG1 in anti-IgD stimulated mice (two site sandwich ELISA, Assay B)
[3] = test system: MHC Class II; assay: Splenocyte cell surface density/distribution (FACS): MHC Class II
Protocol: as §1

CCCCC(C)(O)C/C=C/[C@H]1[C@H](O)CC(=O)[C@@H]1C/C=C\CCCC(=O)OC (mixture of isomers) [(±) methyl 11α,16-dihydroxy-16-methyl-9-oxoprosta-5Z,13E-dien-1-oate]
Percentage Positive Cells ([1]; anti-IgD stimulated mice, 20 μg days 3 and 4, day 7 (PBS 50)): 58 ± 14.6%
Mean Channel Log Fluorescence ([1]; anti-IgD stimulated mice, 20 μg days 3 and 4, day 7 (PBS 118)): 119 ± 7
Percentage Positive Cells ([1]; unstimulated mice, 20 μg (PBS 52.1)): 53.9 ± 2.1%
Mean Channel Log Fluorescence ([1]; unstimulated mice, 20 μg (PBS 135)): 131 ± 4
IgG1 ± SD ([2]; 2 μg IP days 3 and 4, day 7 (control 4808)): 3220 ± 985 µg/mL
IgG1 ± SD ([2]; 2 μg IP days 3 and 4, day 8 (control 13818)): 12947 ± 2195 µg/mL
IgG1 ± SD ([2]; 2 μg IP days 3 and 4, day 9 (control 17700)): 19938 ± 3279 µg/mL
IgG1 ± SD ([2]; 2 μg IP days 3 and 4, day 11 (control 17100)): 17589 ± 1923 µg/mL
IgG1 ± SD ([2]; 2 μg IP days 3 and 4, day -1 baseline before treatment): 215 ± 124 µg/mL
IgG1 ± SD ([2]; 5 μg IP days 3 and 4, day 7): 6902 ± 3604 µg/mL
IgG1 ± SD ([2]; 5 μg IP days 3 and 4, day 8): 18202 ± 5327 µg/mL
IgG1 ± SD ([2]; 5 μg IP days 3 and 4, day 9): 27069 ± 3257 µg/mL
IgG1 ± SD ([2]; 5 μg IP days 3 and 4, day 11): 23205 ± 6506 µg/mL
IgG1 ± SD ([2]; 5 μg IP days 3 and 4, day -1 baseline before treatment): 248 ± 189 µg/mL
IgG1 ± SD ([2]; 10 μg IP days 3 and 4, day 7): 6952 ± 3410 µg/mL
IgG1 ± SD ([2]; 10 μg IP days 3 and 4, day 8): 17649 ± 3158 µg/mL
IgG1 ± SD ([2]; 10 μg IP days 3 and 4, day 9): 26978 ± 11752 µg/mL
IgG1 ± SD ([2]; 10 μg IP days 3 and 4, day 11): 26361 ± 6660 µg/mL
IgG1 ± SD ([2]; 10 μg IP days 3 and 4, day -1 baseline before treatment): 166 ± 14 µg/mL
IgG1 ± SD ([2]; 20 μg IP days 3 and 4, day 7): 6816 ± 3349 µg/mL
IgG1 ± SD ([2]; 20 μg IP days 3 and 4, day 8): 16838 ± 4174 µg/mL
IgG1 ± SD ([2]; 20 μg IP days 3 and 4, day 9): 23900 ± 11791 µg/mL
IgG1 ± SD ([2]; 20 μg IP days 3 and 4, day 11): 24998 ± 7169 µg/mL
IgG1 ± SD ([2]; 20 μg IP days 3 and 4, day -1 baseline before treatment): 255 ± 66 µg/mL
IgG1 ± SD ([2]; 40 μg IP days 3 and 4, day 7): 5168 ± 2391 µg/mL
IgG1 ± SD ([2]; 40 μg IP days 3 and 4, day 9): 24337 ± 4729 µg/mL
IgG1 ± SD ([2]; 40 μg IP days 3 and 4, day 11): 25930 ± 4376 µg/mL
Percentage Positive Cells ([3]; anti-IgD stimulated mice, 20 μg days 3 and 4, day 7 (PBS 59.8)): 68.6 ± 5.1%
Mean Channel Log Fluorescence ([3]; anti-IgD stimulated mice, 20 μg days 3 and 4, day 7 (PBS 134)): 137 ± 15
Percentage Positive Cells ([3]; unstimulated mice, 20 μg (PBS 56.2)): 56.9 ± .4%
Mean Channel Log Fluorescence ([3]; unstimulated mice, 20 μg (PBS 148)): 149 ± 8
